# From patent US8361998B2, “Compounds and their use as IKACh blockers” (AstraZeneca AB, priority 2010, dated 2013)
# pIC50: −log10 of the molar value.
# Target: T1, human cardiac ion channel proteins hKir3.1/Kir3.4 (Homo sapiens, UniProt P48544+P48549)
# T1 construct: expressed in transfected cells
# T1 sequence (P48549 1-501): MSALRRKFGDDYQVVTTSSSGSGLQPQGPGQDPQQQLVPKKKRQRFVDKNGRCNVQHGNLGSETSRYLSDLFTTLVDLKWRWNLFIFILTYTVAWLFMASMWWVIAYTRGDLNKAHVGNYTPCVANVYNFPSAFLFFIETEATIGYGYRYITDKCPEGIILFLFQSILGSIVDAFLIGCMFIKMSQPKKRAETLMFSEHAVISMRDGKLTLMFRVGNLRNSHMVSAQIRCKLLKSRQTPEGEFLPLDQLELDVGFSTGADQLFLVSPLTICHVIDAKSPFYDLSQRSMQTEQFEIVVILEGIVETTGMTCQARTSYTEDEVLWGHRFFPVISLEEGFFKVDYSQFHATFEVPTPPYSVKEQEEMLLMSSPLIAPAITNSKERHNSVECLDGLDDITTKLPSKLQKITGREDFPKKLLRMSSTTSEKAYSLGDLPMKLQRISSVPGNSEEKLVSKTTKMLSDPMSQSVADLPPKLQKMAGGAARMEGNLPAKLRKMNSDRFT
# T1 sequence (P48544 1-419): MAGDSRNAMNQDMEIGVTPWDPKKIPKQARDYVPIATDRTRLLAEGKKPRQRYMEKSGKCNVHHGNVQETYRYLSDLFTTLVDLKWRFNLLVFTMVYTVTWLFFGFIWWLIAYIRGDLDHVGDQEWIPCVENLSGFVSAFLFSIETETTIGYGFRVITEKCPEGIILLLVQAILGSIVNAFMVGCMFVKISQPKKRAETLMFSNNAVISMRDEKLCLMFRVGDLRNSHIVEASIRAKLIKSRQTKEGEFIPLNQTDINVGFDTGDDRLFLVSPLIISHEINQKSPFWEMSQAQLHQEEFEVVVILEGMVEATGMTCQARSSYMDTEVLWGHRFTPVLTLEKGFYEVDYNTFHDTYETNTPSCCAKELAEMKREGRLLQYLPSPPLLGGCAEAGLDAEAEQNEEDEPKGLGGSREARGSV
# Assay: Atomic Absorption Screening (AAS) Rb efflux assay of hKir3.1/Kir3.4 block, carbachol/high K+ stimulated, 10-pt or 7-pt CR
# Type: cell-based
# Conditions: 7-pt CR (0.037 to 27 μmol/L), AAS Rb efflux, CHO-K1 cells expressing hKir3.1/Kir3.4; mean of >3 replicates; read-out: IKACh IC50 7-pt CR, AAS
# In short: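 Mean IC50s derive from >4 replicates over 0.003–67 μmol/L (10-point) or >3 replicates over 0.037–27 μmol/L (7-point), both threefold steps. Rb-loaded (3 h, 37° C) CHO-K1 cells stably expressing hKir3.1/Kir3.4 saw compound for 5 min at RT before 10-min channel opening by carbachol 10 μM/KCl 20 mM final. Released Rb was quantified by atomic absorption.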
row,pIC50,SMILES
1,4.74,"CC(C)[C@H](CN1CCCC1)N(C)C(=O)c1ccc(Cl)cc1F [Example 16.59, (R)-4-Chloro-2-fluoro-N-methyl-N-(3-methyl-1-(pyrrolidin-1-yl)butan-2-yl)benzamide]"
2,5.17,"CC(C)[C@@H](CN1CCCCC1)N(C)C(=O)c1ccc(F)c(Cl)c1 [Example 16.33, 3-Chloro-4-fluoro-N-methyl-N-[(1S)-2-methyl-1-(piperidin-1-ylmethyl)propyl]-benzamide]"
3,5.40,"CC(C)[C@@H](CN1CCCCC1)N(C)C(=O)c1ccc(Br)cc1 [Example 16.27, 4-Bromo-N-methyl-N-[(1S)-2-methyl-1-(piperidin-1-ylmethyl)propyl]benzamide]"

row,SMILES,pIC50
1,"CC(C)[C@H](CN1CCCC1)N(C)C(=O)c1ccc(Cl)c(Cl)c1 [Example 16.56, (R)-3,4-Dichloro-N-methyl-N-(3-methyl-1-(pyrrolidin-1-yl)butan-2-yl)benzamide]",5.44
2,"CC(C)[C@@H](CN1CCCCC1)N(C)C(=O)c1cccc(Br)c1 [Example 16.35, (S)-3-Bromo-N-methyl-N-(3-methyl-1-(piperidin-1-yl)butan-2-yl)benzamide]",4.92

# Same assay, conditions: 10-pt CR (0.003 to 67 μmol/L), AAS Rb efflux, CHO-K1 cells expressing hKir3.1/Kir3.4; mean of >4 replicates; read-out: IKACh IC50 10-pt CR, AAS
row,SMILES,pIC50
1,"Cc1cc(C(=O)N(C)[C@H](CN2CC(O)(C3CC3)C2)C2CC2)ccc1F [Example 9.1, (S)—N-(1-Cyclopropyl-2-(3-cyclopropyl-3-hydroxyazetidin-1-yl)ethyl)-4-fluoro-N,3-dimethylbenzamide]",5.59
2,"CC(C)[C@@H](CN1C[C@H](O)[C@@H](O)C1)N(C)C(=O)c1ccc(Cl)c(F)c1 [Example 8.15, 4-Chloro-N-((S)-1-((3S,4S)-3,4-dihydroxypyrrolidin-1-yl)-3-methylbutan-2-yl)-3-fluoro-N-methylbenzamide]",5.35
3,"CC[C@H](C)[C@@H](CN1CCCC1)N(C)C(=O)c1ccc(Br)cc1 [Example 2.4, 4-Bromo-N-methyl-N-((2S,3S)-3-methyl-1-(pyrrolidin-1-yl)pentan-2-yl)benzamide]",5.74
4,"CCc1ccc(C(=O)N(C)[C@H](CN2CC(O)C2)[C@@H](C)CC)cc1 [Example 29.3, 4-Ethyl-N-((2S,3S)-1-(3-hydroxyazetidin-1-yl)-3-methylpentan-2-yl)-N-methylbenzamide]",6.66
5,"Cc1cc(C(=O)N(C)[C@H](CN2CCCC2)C2CC2)ccc1F [Example 3.13, (S)-N-(1-Cyclopropyl-2-(pyrrolidin-1-yl)ethyl)-4-fluoro-N,3-di-methylbenzamide]",5.44
6,"CC[C@H](C)[C@@H](CN1CC(O)C1)N(C)C(=O)c1cc(Cl)ccc1OC [Example 29.9, 5-Chloro-N-((2S,3S)-1-(3-hydroxyazetidin-1-yl)-3-methylpentan-2-yl)-2-methoxy-N-methylbenzamide]",4.80
7,"CC(C)[C@@H](CN1C[C@H](O)[C@@H](O)C1)N(C)C(=O)c1ccc(Cl)cc1 [Example 8.14, 4-Chloro-N-((S)-1-((3S,4S)-3,4-dihydroxypyrrolidin-1-yl)-3-methylbutan-2-yl)-N-methylbenzamide]",5.24
8,"CN(C(=O)c1ccc(Cl)c(Cl)c1)[C@H](CN1CCCC1)C(C)(C)C [Example 2.1, (S)-3,4-Dichloro-N-(3,3-dimethyl-1-(pyrrolidin-1-yl)butan-2-yl)-N-methylbenzamide]",4.96
9,"CC[C@H](C)[C@@H](CN1CC(O)C1)N(C)C(=O)c1ccc(OC)cc1 [Example 29.6, N-((2S,3S)-1-(3-Hydroxyazetidin-1-yl)-3-methylpentan-2-yl)-4-methoxy-N-methylbenzamide]",5.80
10,"CC[C@H](C)[C@@H](CN1CC(O)C1)N(C)C(=O)c1ccccc1 [Example 29.4, N-((2S,3S)-1-(3-Hydroxyazetidin-1-yl)-3-methylpentan-2-yl)-N-methylbenzamide]",4.92
11,"Cc1cc(C(=O)N(C)[C@H](CN2C[C@@H](O)[C@H](O)C2)C(C)C)ccc1Cl [Example 8.16, 4-Chloro-N-((S)-1-((3R,4R)-3,4-dihydroxypyrrolidin-1-yl)-3-methylbutan-2-yl)-N,3-dimethylbenzamide]",4.80
12,"CCC[C@@H](CN1CC(O)C1)N(C)C(=O)c1cccc(C(F)(F)F)c1 [Example 8.8, (S)-N-(1-(3-Hydroxyazetidin-1-yl)pentan-2-yl)-N-methyl-3-(tri-fluoromethyl)benzamide]",5.62

# Other lines, results leading:
row,pIC50,SMILES
1,5.72,"CN(C(=O)c1ccc(C(C)(C)C#N)cc1)[C@H](CN1CC(O)C1)C1CCCCC1 [Example 36.5, 4-(2-Cyanopropan-2-yl)-N-[(1S)-1-cyclohexyl-2-(3-hydroxyazetidin-1-yl)ethyl]-N-methylbenzamide]"
2,5.41,"CN(C(=O)c1ccc(F)c(F)c1)[C@@H](CN1CC(O)C1)C1CCC1 [Example 35.7, N-[(1R)-1-Cyclobutyl-2-(3-hydroxyazetidin-1-yl)ethyl]-3,4-difluoro-N-methylbenzamide]"
3,5.68,"CCc1ccc(C(=O)N(C)[C@@H](CC(C)C)CN2CC(O)C2)cc1 [Example 38.3, 4-Ethyl-N-[(2S)-1-(3-hydroxyazetidin-1-yl)-4-methylpentan-2-yl]-N-methylbenzamide]"
4,5.72,"CN(C(=O)c1cc(F)cc(C#N)c1)[C@H](CN1CC(O)C1)C1CCCCC1 [Example 36.6, 3-Cyano-N-[(1S)-1-cyclohexyl-2-(3-hydroxyazetidin-1-yl)ethyl]-5-fluoro-N-methylbenzamide]"
5,5.10,"CCC[C@@H](CN1CC[C@H](O)C1)N(C)C(=O)c1ccc(C#N)cc1 [Example 46.1, 4-Cyano-N-((S)-1-((S)-3-hydroxypyrrolidin-1-yl)pentan-2-yl)-N-methylbenzamide]"
6,4.89,"CN(C(=O)c1ccccc1)[C@@H](CN1CC(O)C1)C1CCC1 [Example 35.14, N-[(1R)-1-Cyclobutyl-2-(3-hydroxyazetidin-1-yl)ethyl]-N-methylbenzamide]"
7,5.64,"CN(C(=O)c1ccc(F)cc1Cl)C(CN1CC(O)C1)C1CCCC1 (single isomer, unassigned) [32.6, isomer 2]"
8,6.80,"CN(C(=O)c1ccc(F)cc1)[C@H](CN1CC(O)C1)C1CCC1 [Example 39.13, (S)—N-(1-Cyclobutyl-2-(3-hydroxyazetidin-1-yl)ethyl)-4-fluoro-N-methylbenzamide]"
9,6.32,"COc1ccc(C(=O)N(C)[C@H](CN2CC(O)C2)C2CCC2)cc1F [Example 39.6, (S)—N-(1-Cyclobutyl-2-(3-hydroxyazetidin-1-yl)ethyl)-3-fluoro-4-methoxy-N-methylbenzamide]"

# Same assay, conditions: printed as IC50 >67 μM in the 10-pt CR assay or IC50 >27 μM in the 7-pt CR assay; assay format per compound not stated; read-out: IC50
row,pIC50,SMILES
1,< 4.57,"CC(C)[C@@H](CN1C[C@H](O)[C@@H](O)C1)N(C)C(=O)c1ccc(C#N)cc1 [4-Cyano-N-((S)-1-((3S,4S)-3,4-dihydroxypyrrolidin-1-yl)-3-methylbutan-2-yl)-N-methylbenzamide]"
2,< 4.57,"COc1cccc(C(=O)N(C)[C@H](CN2CCCC(F)(F)C2)C(C)C)c1 [N-[(1S)-1-[(3,3-Difluoro-1-piperidyl)methyl]-2-methyl-propyl]-3-methoxy-N-methyl-benzamide]"
3,< 4.57,"CC(C)[C@@H](CN1CCC(F)(F)C1)N(C)C(=O)c1ccc(Cl)cc1 [(S)-4-Chloro-N-(1-(3,3-difluoropyrrolidin-1-yl)-3-methylbutan-2-yl)-N-methylbenzamide]"
4,< 4.57,"Cc1cc(C(=O)N(C)C(C)(C)CN2CCCC2)ccc1F [4-Fluoro-N,3-dimethyl-N-(2-methyl-1-(pyrrolidin-1-yl)propan-2-yl)benzamide]"
